Measurements from patent US8877816B2, “4-(or 5-) substituted catechol derivatives” (Decode Genetics EHF, priority 2007, dated 2014).

Assays:
PDE4 h4D7 = PDE4 h4D7 (Homo sapiens, UniProt Q08499); experiment: In-vitro real-time enzyme-coupled spectrophotometric assay for PDE4 enzymes (h4D7); assay type: biochemical; details: PDE4 isoform h4D7; enzyme-coupled NADH assay, absorbance at 340 nm
Procedure: (§1) In-vitro assay for PDE4 enzymes. The in-vitro activity of PDE4 enzymes and the in-vitro potency of therapeutic agents described in the present invention was measured using a real-time, enzyme-coupled spectrophotometric assay. By using three different coupling enzymes, the product of the PDE4 reaction is coupled to the oxidation of the reduced form β-nicotinamide adenine dinucleotide (NADH), which dissipation can be monitored spectrophotmetrically at […].
(§2) Assay description. Buffer A containing 50 mM Tris, pH 8.0, 16 mM MgCl2 and 80 mM KCl is prepared and stored at room temperature. Buffer B containing 50 mM Tris, pH 8.0 is prepared and stored at room temperature. Stock solutions of the following reagents are prepared in Buffer B and stored at −20° C.: Adenosine-5′-triphosphate (ATP), cyclic adenosine-5′-monophosphate (cAMP), phosphoenolpyruvate (PEP) and NADH. An assay mix is prepared by mixing Buffer A, […] (TCEP), ATP, PEP, NADH, myokinase (MK), pyruvate kinase (PK), lactate dehydroganese (LDH) and PDE4 to a final volume of 20 mL, which is enough for a single 96-well assay plate. Assay mix (180 μL) and test article (10 μL) in 1:1 DMSO/H2O mixture is pre-incubated at room temperature for 10 min. The enzymatic reaction is initiated by addition of cAMP (10 μL). Final concentration of all components in the assay (200 μL/well) are as follows: 10 mM MgCl2, 50 mM KCl, 5 mM TCEP, 2.5% DMSO, 0.4 mM NADH, 1 mM PEP, 0.04 mM ATP, 5 units MK, 1 unit PK, 1 unit LDH and appropriate amount of PDE4. Reaction progress curves are monitored in a plate reader capable of measuring light absorbance at 340 nm. A decrease in light absorbance at 340 nm is due to oxidation of NADH. Positive controls containing no test article and negative controls containing no test article and no cAMP are included on every assay plate. Reaction rates are determined from the slopes of the linear portions of the progress curves. All data are percent normalized with respect to controls and presented as percent inhibition.

PDE4 h4B1 = PDE4 h4B1 (Homo sapiens, UniProt Q07343); experiment: In-vitro real-time enzyme-coupled spectrophotometric assay for PDE4 enzymes (h4B1); assay type: biochemical; details: PDE4 isoform h4B1; enzyme-coupled NADH assay, absorbance at 340 nm
Procedure: as §1, §2

[1] = tested on: leukotriene E4 (LTE4) in human whole blood after Sephadex stimulation; experiment: Ex-vivo assay: Sephadex bead stimulated LTE4 production in human whole blood; assay type: cell-based; details: 1.5 h; heparinized human whole blood, Sephadex G-15 beads, 37° C. 90 min, LTE4 by immunoassay; read-out: IC50 (inhibition of LTE4 production)
Procedure: The activity of PDE4 inhibitors described in the present invention was also measured using in an ex-vivo assay measuring leukotriene E4 (LTE4) in human whole blood after Sephadex stimulation. […] For each sample, 356 μl of heparinized human whole blood (Vacutainer tube #6480) is added to wells of a 96 well plate. Then, 4 μl of a series of compound dilutions (in DMSO) are added in triplicates, suspension mixed and allowed to incubate at 37° C. for 15 min with gentle shaking. After that, blood samples are stimulated by adding 40 μL of Sephadex G-15 beads (Sigma-Aldrich, Sweden). The beads are predissolved in PBS (0.16 g/mL PBS). After mixing, the suspension is incubated at 37° C. for 90 min. Then, 8 μL of 15% EDTA/PBS is added to each sample, mixed and plate centrifuged for 5 min at 115×g at 21° C. and supernatants taken. In each plate, 10 positive controls and 10 negative controls are used, containing DMSO instead of compound solution. The positive controls are stimulated with Sephadex as described for the samples, and in the negative controls (unstimulated), Sephadex solution is replaced by PBS. LTE4 levels in the resulting plasma samples are determined using a commercial enzyme-linked immunoassay (Cayman Chemical Company, Ann Arbor, Mich.) according to the manufacturer's instructions. […]

PDE4 h4B1, sequence (Q07343 whole entry, canonical isoform): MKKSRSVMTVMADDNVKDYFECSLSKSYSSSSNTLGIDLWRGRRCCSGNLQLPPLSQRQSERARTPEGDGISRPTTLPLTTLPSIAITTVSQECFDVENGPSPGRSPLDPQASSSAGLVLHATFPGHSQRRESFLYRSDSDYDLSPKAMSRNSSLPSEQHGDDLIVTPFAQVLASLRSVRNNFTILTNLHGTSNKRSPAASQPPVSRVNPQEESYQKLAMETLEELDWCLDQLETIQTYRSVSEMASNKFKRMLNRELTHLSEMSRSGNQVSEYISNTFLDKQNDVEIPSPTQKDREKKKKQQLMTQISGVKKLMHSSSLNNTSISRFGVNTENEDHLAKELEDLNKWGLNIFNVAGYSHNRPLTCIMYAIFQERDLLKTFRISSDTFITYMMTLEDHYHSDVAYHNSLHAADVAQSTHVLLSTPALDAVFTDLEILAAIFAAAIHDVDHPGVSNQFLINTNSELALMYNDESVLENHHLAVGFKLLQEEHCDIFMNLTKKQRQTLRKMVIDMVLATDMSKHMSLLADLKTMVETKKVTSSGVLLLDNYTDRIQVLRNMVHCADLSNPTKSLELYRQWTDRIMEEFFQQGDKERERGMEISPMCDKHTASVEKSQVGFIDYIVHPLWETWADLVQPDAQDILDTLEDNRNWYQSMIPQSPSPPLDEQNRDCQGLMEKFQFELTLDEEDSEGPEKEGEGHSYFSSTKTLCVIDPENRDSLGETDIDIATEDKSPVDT
PDE4 h4D7, sequence (Q08499 1-748 isoform Q08499-11): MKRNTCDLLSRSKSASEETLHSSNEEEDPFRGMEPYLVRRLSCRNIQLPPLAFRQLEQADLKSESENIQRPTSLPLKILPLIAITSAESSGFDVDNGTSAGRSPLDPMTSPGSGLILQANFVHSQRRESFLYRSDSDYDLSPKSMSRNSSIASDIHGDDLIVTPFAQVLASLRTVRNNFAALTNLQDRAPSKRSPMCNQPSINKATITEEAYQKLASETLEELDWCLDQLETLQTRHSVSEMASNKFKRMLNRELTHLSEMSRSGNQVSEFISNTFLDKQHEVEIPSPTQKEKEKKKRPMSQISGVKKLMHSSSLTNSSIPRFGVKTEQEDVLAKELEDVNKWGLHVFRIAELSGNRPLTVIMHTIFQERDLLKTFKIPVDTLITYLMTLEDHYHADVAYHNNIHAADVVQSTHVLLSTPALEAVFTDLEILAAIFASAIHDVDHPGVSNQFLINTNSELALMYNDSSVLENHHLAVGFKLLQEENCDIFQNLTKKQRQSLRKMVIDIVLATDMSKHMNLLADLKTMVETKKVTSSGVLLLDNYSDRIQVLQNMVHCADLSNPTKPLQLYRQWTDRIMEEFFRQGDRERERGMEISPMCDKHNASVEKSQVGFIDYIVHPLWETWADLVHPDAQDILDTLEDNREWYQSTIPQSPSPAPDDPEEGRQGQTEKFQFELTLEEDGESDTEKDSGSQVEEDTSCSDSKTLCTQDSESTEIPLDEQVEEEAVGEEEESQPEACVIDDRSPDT

IC50 (PDE4 h4D7) [µM]	IC50 (PDE4 h4B1) [µM]	IC50 [1] [µM]	Structure (SMILES)
1 to 10	> 21	–	COc1ccc(Cc2ccc(NS(C)(=O)=O)nc2)cc1Oc1cccc(Cl)c1 [Example P-09, N-{5-[3-(3-Chloro-phenoxy)-4-methoxy-benzyl]-pyridin-2-yl}-methanesulfonamide]
< 1	1 to 10	–	COc1ccc(Cc2ccc(NC(N)=O)cc2)c(F)c1Oc1ccc(F)cc1 [Example P-11, {4-[2-Fluoro-3-(4-fluoro-phenoxy)-4-methoxy-benzyl]-phenyl}-urea]
1 to 10	1 to 10	–	COc1ccc(Cc2ccc(NC(N)=O)nc2)cc1Oc1cccc(Cl)c1 [Example P-06, {5-[3-(3-Chloro-phenoxy)-4-methoxy-benzyl]-pyridin-2-yl}-urea]
< 1	> 21	–	COc1ccc(Cc2ccc(NC(N)=O)cc2)c(F)c1Oc1ccccn1 [Example P-12]
> 21	> 21	–	COc1ccc(Cc2ccc(NS(C)(=O)=O)cc2)cc1Oc1ccccc1 [Example P-04, N-[4-(4-Methoxy-3-phenoxy-benzyl)-phenyl]-methanesulfonamide]
< 1	1 to 10	–	COc1ccc(Cc2ccc(F)cc2)c(F)c1Oc1cccc(Cl)c1 [Example P-03, 2-(3-Chloro-phenoxy)-3-fluoro-4-(4-fluoro-benzyl)-1-methoxy-benzene]
> 21	> 21	–	COc1ccc(Cc2ccc(F)cc2)c(F)c1Oc1cccc(N)c1 [Example P-02, 3-[2-Fluoro-3-(4-fluoro-benzyl)-6-methoxy-phenoxy]-phenylamine]
< 1	> 21	< 1	COc1ccc(Cc2ccc(F)cc2)c(F)c1Oc1cccc([N+](=O)[O-])c1 [Example P-01, 2-Fluoro-1-(4-fluoro-benzyl)-4-methoxy-3-(3-nitro-phenoxy)-benzene]
1 to 10	> 21	–	COc1ccc(Cc2ccc(O)cc2)cc1Oc1cccc(Cl)c1 [Example P-08, 4-[3-(3-chloro-phenoxy)-4-methoxy-benzyl]-phenol]
11 to 20	> 21	–	COc1ccc(Cc2ccc(NC(C)=O)cc2)c(F)c1Oc1ccc(F)cc1 [Example P-10, N-{4-[2-Fluoro-3-(4-fluoro-phenoxy)-4-methoxy-benzyl]-phenyl}-acetamide]
1 to 10	11 to 20	–	COc1ccc(Cc2ccc(N)nc2)cc1Oc1cccc(Cl)c1 [Example P-05, 5-[3-(3-Chloro-phenoxy)-4-methoxy-benzyl]-pyridin-2-ylamine]
1 to 10	1 to 10	–	COc1ccc(Cc2ccc(N)cc2)cc1Oc1cccc(Cl)c1 [Example P-07, 4-[3-(3-Chloro-phenoxy)-4-methoxy-benzyl]-phenylamine]
